Reference: US20060135796A1, “Antiangiogenic agents” (priority 2000, published 2006)
Read-outs that look alike come from different tables or passages of the source.

Columns and labels:
[1] = tested on: estrogen dependant MCF-7 cells; assay: MCF7 proliferation index (estrogenic activity); type: cell-based; conditions: measure of estrogenic activity
Excerpt: All of these analogs have the capacity to from a hydrogen bond with the hydroxy group at position 3 and this may be the reason for their relatively low estrogenic character compared to estradiol. Both the 2-methylhydroxy and 2-formyl derivatives had good antiproliferative activity (IC50<10 microM) in HUVEC cells, whereas the 2-acetyl had poor activity in the same assay.

[2] = tested on: chick embryo chorioallantoic membrane; assay: chick embryo chorioallantoic membrane (CAM) assay; type: in vivo; design: dose or concentration left out as unconfirmed; conditions: methylcellulose disc on CAM, after 48 hours
Method: Anti-proliferative activity is evaluated in situ by testing the ability of an improved estradiol derivative to inhibit the proliferation of new blood vessel cells (angiogenesis). A suitable assay is the chick embryo chorioallantoic membrane (CAM) assay described by Crum et al. Science 230:1375 (1985). See also, U.S. Pat. No. 5,001,116, hereby incorporated by reference, which describes the CAM assay. Briefly, fertilized chick embryos are removed from their shell on day 3 or 4, and a methylcellulose disc containing the drug is implanted on the chorioallantoic membrane. The embryos are examined 48 hours later and, if a clear avascular zone appears around the methylcellulose disc, the diameter of that zone. is measured.

[3] = tested on: MDA-MB-231 human breast carcinoma cells; assay: MDA-MB-231 in vitro cellular proliferation inhibition (BrdU); type: cell-based; conditions: for antiproliferative activity in MDA-MB-231 cells, in words: breast tumor MDA-MB-231 cells; for fold less activity than 2-methoxyestradiol: MDA-MB-231 tumor cell line, compared to 2-methoxyestradiol
Method: MDA-MB-231 In Vitro Cellular Proliferation Inhibition
MDA-MB-231 Cells and Culture Conditions
MDA-MB-231 human breast carcinoma cells were grown in DMEM containing 10% FCS (Hyclone Laboratories, Logan Utah) and supplemented with 2 mM L-Glutamine, 100 units/ml penicillin, 100 μg/ml streptomycin (Irvine Scientific, Santa Anna, Calif.).
MDA-MB-231 cells were plated at 5000 cells/ml in 96 well plates. After allowing the cells to attach overnight, the appropriate fresh media were applied containing differing concentrations of 2-ME2 or derivatives thereof, as described below. Drug was dissolved in DMSO (Sigma, St. Louis, Mo.) and added to the wells in a volume of 200 μl. Cells were incubated for two days at 37° C.; at 32 h BrdU was added. BrdU cell proliferation assay (a nucleotide analogue with a fluorescein tag that is incorporated into DNA) was performed as described by the manufacturer (Roche). Each condition was prepared in triplicate and the experiments were carried out a minimum of two times. Results are presented and means ±SE.
(§1) In order to assess the biological activity of modifications at position 16, the anti-proliferative activity of these analogs was evaluated on human umbilical vein endothelial cells (HUVEC) and breast carcinoma cell line, MDA-MB-231 as models for the anti-angiogenic and anti-tumor activity, respectively.

HUVEC cells = assay: HUVEC in vitro cellular proliferation inhibition (BrdU); type: cell-based, human; conditions: for antiproliferative activity in HUVEC cells, in words: inhibition of HUVEC / endothelial cell proliferation in vitro
Method: HUVAC In Vitro Cellular Proliferation Inhibition
HUVAC Cells and Culture Conditions
HUVAC Cells were Grown in EGM (Clonetics)
HUVEC cells were plated at 5000 cells/ml in 96-well plates. After allowing the cells to attach overnight, the cells were washed with PBS and incubated in the absence of growth factor for 24 h (EBM, 2% FCS, Clonetics). Cells were treated with increasing concentrations of drug in EBM containing 2% FCS and 10 ng.ml bFGF for 48 h at 37° C. Drug preparation, volumes added and BrdU proliferation assay were performed as indicated above.
as §1

[4] = Table 1, 2-modified estradiol derivatives, read-out: MDA-MB-231 (IC50 μM)
[5] = Table 2, 2-methoxyestradiol modified at position 16, two days, read-out: MDA-MB-231 IC50
[6] = Table 2, 2-methoxyestradiol modified at position 16, 48 h, bFGF, read-out: HUVEC IC50
[7] = Table 1, 2-modified estradiol derivatives, read-out: HUVEC (IC50 μM)
[8] = text statement b78, read-out: antiproliferative activity IC50 in HUVEC cells

| Compound | MCF7 Proliferation Index [1] | IC50 [3, 5] [µM] | IC50 (HUVEC cells; [6]) [µM] | other results |
| --- | --- | --- | --- | --- |
| COc1cc2c(cc1O)CC[C@@H]1[C@@H]2CC[C@]2(C)[C@@H](O)CC[C@@H]12 [Example 2ME2, 2-Methoxyestradiol, reference compound] | 4.4 | 0.9 | – | inhibition of cell mitosis and growth of new blood vessels [2]: inhibit cell mitosis and the growth of new blood vessels; IC50 [3, 4]: 0.9 µM |
| CCC[C@H]1C[C@H]2[C@@H]3CCc4cc(O)c(OC)cc4[C@H]3CC[C@]2(C)[C@H]1O [n-propyl, 16β-n-propyl-2-methoxyestradiol] | – | 36 | 9 | – |
| 16β-isobutyl-2-methoxyestradiol | – | 40 | 7.5 | fold difference between tumor cell and endothelial cell antiproliferative activity (selectivity) ([3]; MDA-MB-231 versus HUVEC): 5 fold |
| CCC[C@@H]1C[C@H]2[C@@H]3CCc4cc(O)c(OC)cc4[C@H]3CC[C@]2(C)[C@H]1O [n-propyl (—CH2CH2CH3), 16α-n-propyl-2-methoxyestradiol] | – | > 50 | 6 | antiproliferative activity in HUVEC cells, in words (HUVEC cells): good activity |
| COc1cc2c(cc1O)CC[C@@H]1[C@@H]2CC[C@]2(C)[C@@H](O)[C@H](C)C[C@@H]12 [methyl (—CH3), 16α-methyl-2methoxyestradiol] | – | < 0.5 | < 0.5 | antiproliferative activity in MDA-MB-231 cells, in words [3]: better activity than 2-methoxyestradiol; antiproliferative activity in HUVEC cells, in words (HUVEC cells): greater activity than 2-methoxyestradiol |
| C[C@]12CC[C@@H]3c4ccc(O)cc4CC[C@H]3[C@@H]1CC[C@@H]2O [Example E2, estradiol, reference compound] | 13.1 | – | – | – |
| COc1cc2c(cc1O)CC[C@@H]1[C@@H]2CC[C@]2(C)[C@@H](O)[C@@H](CN(C)C)C[C@@H]12 [16β-methyl(dimethylamine)-2-methoxyestradiol] | – | 22 | 9 | – |
| C[C@]12CC[C@@H]3c4cc(CO)c(O)cc4CC[C@H]3[C@@H]1CC[C@@H]2O [2-methyl hydroxy-E2] | 7.4 | – | – | IC50 [3, 4]: > 25 µM; antiproliferative activity in MDA-MB-231 cells, in words [3]: inactive; IC50 (HUVEC cells; [7]): 10 µM; IC50 (HUVEC cells; [8]): < 10 µM |
| CC12CCC3c4cc(C=O)c(O)cc4CCC3C1CCC2O (stereo not drawn) [Example 2-formyl-E2] | 5.4 | – | – | IC50 [3, 4]: > 25 µM; antiproliferative activity in MDA-MB-231 cells, in words [3]: inactive; IC50 (HUVEC cells; [7]): 8 µM; IC50 (HUVEC cells; [8]): < 10 µM |
| COc1cc2c(cc1O)CC[C@@H]1[C@@H]2CC[C@]2(C)[C@@H](O)[C@@H](C)C[C@@H]12 [methyl, 16β-methyl-2methoxyestradiol] | – | 5 | 1.3 | fold less activity than 2-methoxyestradiol [3]: about 5 fold |
| CC(=O)c1cc2c(cc1O)CC[C@@H]1[C@@H]2CC[C@]2(C)[C@@H](O)CC[C@@H]12 [Example 2-acetyl-E2] | 4.4 | – | – | IC50 [3, 4]: 9 µM; antiproliferative activity in MDA-MB-231 cells, in words [3]: good activity; IC50 (HUVEC cells; [7]): 18 µM; antiproliferative activity in HUVEC cells, in words (HUVEC cells): poor activity |
| CCC1C[C@H]2[C@@H]3CCc4cc(O)c(OC)cc4[C@H]3CC[C@]2(C)[C@H]1O (mixture of isomers) [ethyl (—CH2CH3), Racemic 16-ethyl-2-methoxyestradiol] | – | 3 | 2 | fold less activity than 2-methoxyestradiol [3]: ~3 fold; antiproliferative activity in HUVEC cells, in words (HUVEC cells): about equipotent to 2-methoxyestradiol |
| COc1cc2c(cc1O)CC[C@@H]1[C@@H]2CC[C@]2(C)[C@@H](O)[C@@H](CO)C[C@@H]12 [methanol (—CH2OH), 16β-methanol-2-methoxyestradiol] | – | 22 | 15 | – |
| CCCC[C@H]1C[C@H]2[C@@H]3CCc4cc(O)c(OC)cc4[C@H]3CC[C@]2(C)[C@H]1O [n-butyl, 16β-n-butyl-2-methoxyestradiol] | – | 39 | 9 | – |
